Source: patent publication US20240270741A1 (Cogent Biosciences, Inc., priority 2023, published 2024)

Biological target: FGFR2 (Homo sapiens, UniProt P21802)
Assay: FGFR wild type enzyme assay (HTRF KinEASE-TK), FGFR2
Conditions: Enz FGFR2 (nM), FGFR2 wild type enzyme assay
Description: Activity against FGFR wild type and mutant enzymes were determined in biochemical assays using purified intracellular domains of the respective isoforms using HTRF KinEASE-TK assay technology from CisBio, now PerkinElmer. (Catalogue number 62TK0PEC). Briefly test compounds were tested in 11 point 1:3 serial dilutions, typical final concentration ranges from 10,000 nM to 0.17 nM. Test compounds were dissolved in DMSO and added to assay plates using acoustic transfer. Enzyme was pre-incubated with test compound for 30 minutes and the assay was initiated by addition of ATP and TK-peptide substrate. After 60 minutes at room temperature the reaction was quenched with detection reagent and incubated for an additional 60 minutes at room temperature. The plates were read using a multimode reader and the emission ratio of 665 nm to 615 nm was determined. This ratio was converted to percent of control (POC). [1-(high control-sample signal)/(high control-low control)]*100. Wells without compound were used to determine high control values and wells without enzyme were used to determine low control values. The POC values were fit using a four-parameter logistic model and the value where the fit curve was equal to 50 POC was reported as the IC50 using the Signals Vitro Vivo software package (PerkinElmer). Final assay conditions were: 50 mM HEPES pH7.5, 10 mM MgCl2, 1 mM EDTA, 0.01% Brij-35, 2 mM MnCl2, 1 mM DTT, and 0.5 uM TK-peptide.

Chain of FGFR2 (P21802 399-821 limits assumed): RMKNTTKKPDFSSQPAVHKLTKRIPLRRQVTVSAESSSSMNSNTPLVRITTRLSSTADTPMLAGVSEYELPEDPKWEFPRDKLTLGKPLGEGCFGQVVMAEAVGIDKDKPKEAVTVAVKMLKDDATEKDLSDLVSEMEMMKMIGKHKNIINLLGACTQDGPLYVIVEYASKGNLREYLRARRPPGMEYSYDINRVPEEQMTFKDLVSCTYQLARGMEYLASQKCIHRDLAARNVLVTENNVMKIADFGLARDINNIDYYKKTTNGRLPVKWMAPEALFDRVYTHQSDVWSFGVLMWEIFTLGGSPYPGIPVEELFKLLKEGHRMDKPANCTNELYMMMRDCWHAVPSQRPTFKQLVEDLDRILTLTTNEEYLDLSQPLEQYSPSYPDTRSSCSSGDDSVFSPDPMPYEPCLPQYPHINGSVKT

SMILES	IC50 [nM]
COC(=O)N1CCC[C@H](n2ncc(-c3cc(Sc4ccc(F)cc4C#N)c4c(C#N)cnn4c3)c2C)C1 [Example 363, methyl (S)-3-(4-(3-cyano-4-((2-cyano-4-fluorophenyl)thio)pyrazolo [1,5-a]pyridin-6-yl)-5-methyl-1H-pyrazol-1-yl)piperidine-1-carboxylate]	2
COC(=O)N[C@]1(C)CC[C@H](n2ncc(-c3cc(Sc4ccc(F)cc4C#N)c4c(C#N)cnn4c3)c2C)CC1 [Example 364, methyl ((1s,4s)-4-(4-(3-cyano-4-((2-cyano-4-fluorophenyl)thio)pyrazolo [1,5-a]pyridin-6-yl)-5-methyl-1H-pyrazol-1-yl)-1-methylcyclohexyl)carba-mate]	3
COC(=O)N1[C@@H]2CC[C@H]1C[C@H](n1ncc(-c3cc(Sc4ccc(F)cc4C#N)c4c(C#N)cnn4c3)c1C)C2 [Example 365, methyl (1R,3s,5S)-3-(4-(3-cyano-4-((2-cyano-4-fluorophenyl)thio)pyrazolo [1,5-a]pyridin-6-yl)-5-methyl-1H-pyrazol-1-yl)-8-azabicyclo[3.2.1]octane-8-carboxylate]	2
Cc1c(-c2cc(Sc3ccc(F)cc3C#N)c3c(C#N)cnn3c2)cnn1[C@@H]1C[C@H]2CC[C@@H](C1)N2 [Example 366, 6-(1-((1R,3s,5S)-8-azabicyclo[3.2.1]octan-3-yl)-5-methyl-1H-pyrazol-4-yl)-4-((2-cyano-4-fluorophenyl)thio)pyrazolo [1,5-a]pyridine-3-carbonitrile]	0.6
CC(=O)N[C@@H]1CC[C@@H](n2cc(-c3cc(Sc4ccccc4C#N)c4c(C#N)cnn4c3)cn2)C1 [Example 368, N-((1R,3R)-3-(4-(3-cyano-4-((2-cyanophenyl)thio)pyrazolo [1,5-a]pyridin-6-yl)-1H-pyrazol-1-yl)cyclopentyl)acetamide]	0.4
Cc1c(-c2cc(Sc3ccc(Cl)cc3C#N)c3c(C#N)cnn3c2)cnn1C1CCN(C)CC1 [Example 369, 4-((4-chloro-2-cyanophenyl)thio)-6-(5-methyl-1-(1-methylpiperidin-4-yl)-1H-pyrazol-4-yl)pyrazolo[1,5-a]pyridine-3-carbonitrile]	5
Cc1c(-c2cc(Sc3ccc(F)cc3C#N)c3c(C#N)cnn3c2)cnn1[C@@H]1C[C@H]2CC[C@@H](C1)N2C(=O)CO [Example 372, 4-((2-cyano-4-fluorophenyl)thio)-6-(1-((1R,3s,5S)-8-(2-hydroxyacetyl)-8-azabicyclo[3.2.1]octan-3-yl)-5-methyl-1H-pyrazol-4-yl)pyrazolo[1,5-a]pyridine-3-carbonitrile]	1
Cc1cnc(Sc2cc(-c3cnn(C4CCN(C)CC4)c3C)cn3ncc(C#N)c23)c(F)c1 [Example 377, 4-((3-fluoro-5-methylpyridin-2-yl)thio)-6-(5-methyl-1-(1-methylpiperidin-4-yl)-1H-pyrazol-4-yl)pyrazolo[1,5-a]pyridine-3-carbonitrile]	11
Cc1c(-c2cc(Sc3ccc(F)cc3C#N)c3c(C#N)cnn3c2)cnn1C1CCN([C@@H](C)CO)CC1 [Example 380, (S)-4-((2-cyano-4-fluorophenyl)thio)-6-(1-(1-(1-hydroxypropan-2-yl)piperidin-4-yl)-5-methyl-1H-pyrazol-4-yl)pyrazolo[1,5-a]pyridine-3-carbonitrile]	1

The remaining compounds from weak to strong by IC50, led by results:

IC50 [nM]	SMILES
35	CN1CCC(n2ncc(-c3cc(Sc4ncccc4F)c4c(C#N)cnn4c3)c2C#N)CC1 [Example 370, 6-(5-cyano-1-(1-methylpiperidin-4-yl)-1H-pyrazol-4-yl)-4-((3-fluoropyridin-2-yl)thio)pyrazolo[1,5-a]pyridine-3-carbonitrile]
25	COc1ccc(Sc2cc(-c3cnn(C4CCN(C)CC4)c3C)cn3ncc(C#N)c23)c(C#N)c1 [Example 379, 4-((2-cyano-4-methoxyphenyl)thio)-6-(5-methyl-1-(1-methylpiperidin-4-yl)-1H-pyrazol-4-yl)pyrazolo[1,5-a]pyridine-3-carbonitrile]
14	CC(=O)N1CCC(n2ncc(-c3cc(Sc4nccc(C)c4F)c4c(C#N)cnn4c3)c2C)CC1 [Example 382, 6-(1-(1-acetylpiperidin-4-yl)-5-methyl-1H-pyrazol-4-yl)-4-((3-fluoro-4-methylpyridin-2-yl)thio)pyrazolo[1,5-a]pyridine-3-carbonitrile]
5.5	Cc1c(-c2cc(Sc3ncc(Cl)cc3F)c3c(C#N)cnn3c2)cnn1C1CCN(C)CC1 [Example 376, 4-((5-chloro-3-fluoropyridin-2-yl)thio)-6-(5-methyl-1-(1-methylpiperidin-4-yl)-1H-pyrazol-4-yl)pyrazolo[1,5-a]pryidine-3-carbonitrile]
5	Cc1cc(Sc2cc(-c3cnn(C4CCN(C)CC4)c3C)cn3ncc(C#N)c23)c(C#N)cc1F [Example 371, 4-((2-cyano-4-fluoro-5-methylphenyl)thio)-6-(5-methyl-1-(1-methylpiperidin-4-yl)-1H-pyrazol-4-yl)pyrazolo[1,5-a]pyridine-3-carbonitrile]
4	Cc1ccc(Sc2cc(-c3cnn(C4CCN(C)CC4)c3C)cn3ncc(C#N)c23)c(C#N)c1 [Example 378, 4-((2-cyano-4-methylphenyl)thio)-6-(5-methyl-1-(1-methylpiperidin-4-yl)-1H-pyrazol-4-yl)pyrazolo[1,5-a]pyridine-3-carbonitrile]
2	CC(=O)N1[C@@H]2CC[C@H]1C[C@H](n1ncc(-c3cc(Sc4ccc(F)cc4C#N)c4c(C#N)cnn4c3)c1C)C2 [Example 373, 6-(1-((1R,3s,5S)-8-acetyl-8-azabicyclo[3.2.1]octan-3-yl)-5-methyl-1H-pyrazol-4-yl)-4-((2-cyano-4-fluorophenyl)thio)pyrazolo [1,5-a]pyridine-3-carbonitrile]
1	COC(=O)N[C@H]1CC[C@@H](n2ncc(-c3cc(Sc4ccc(F)cc4C#N)c4c(C#N)cnn4c3)c2C)CC1 [Example 362, methyl ((1s,4s)-4-(4-(3-cyano-4-((2-cyano-4-fluorophenyl)thio)pyrazolo [1,5-a]pyridin-6-yl)-5-methyl-1H-pyrazol-1-yl)cyclohexyl)carbamate]
1	Cc1noc(Cn2cc(-c3cc(Sc4ccccc4C#N)c4c(C#N)cnn4c3)cn2)n1 [Example 374, 4-((2-cyanophenyl)thio)-6-(1-((3-methyl-1,2,4-oxadiazol-5-yl)methyl)-1H-pyrazol-4-yl)pyrazolo[1,5-a]pyridine-3-carbonitrile]
1	Cc1c(-c2cc(Sc3ccc(F)cc3C#N)c3c(C#N)cnn3c2)cnn1C1CCN([C@H](C)CO)CC1 [Example 381, (R)-4-((2-cyano-4-fluorophenyl)thio)-6-(1-(1-(1-hydroxypropan-2-yl)piperidin-4-yl)-5-methyl-1H-pyrazol-4-yl)pyrazolo[1,5-a]pyridine-3-carbonitrile]
0.6	Cn1ccc(Cn2cc(-c3cc(Sc4ccccc4C#N)c4c(C#N)cnn4c3)cn2)n1 [Example 375, 4-((2-cyanophenyl)thio)-6-(1-((1-methyl-1H-pyrazol-3-yl)methyl)-1H-pyrazol-4-yl)pyrazolo[1,5-a]pyridine-3-carbonitrile]
0.4	N#Cc1ccccc1Sc1cc(-c2cnn(C3CCS(=O)(=O)CC3)c2)cn2ncc(C#N)c12 [Example 367, 4-((2-cyanophenyl)thio)-6-(1-(1,1-dioxidotetrahydro-2H-thiopyran-4-yl)-1H-pyrazol-4-yl)pyrazolo[1,5-a]pyridine-3-carbonitrile]
